Among the data in PubChem BioAssay (NCI) are GI50 and TGI values, retold here.

Common to all, as to test: DTP human tumour cell line panel, 48 h
Assay [1] has as its system M14 melanoma.
Assay [2] relates to HT29 colon.
For assay [3], the system named is SF-539 CNS.
The test system of assay [4] is HOP-62 NSCLC.
In assay [5] the test system is OVCAR-5 ovarian.
Assay [6] deals with ACHN renal.
Assay [7] deals with PC-3 prostate.
The test system of assay [8] is MDA-MB-435.
Assay [9] relates to UACC-257 melanoma.
Assay [10] has as its system SNB-19 CNS.

Where “and” joins values, the source holds several entries; their conditions need not be identical. Equal entries are not always repeated.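 Briefly, cells in 96-well plates were exposed to five compound concentrations for 48 h, and endpoints were estimated by linear interpolation. GI50 marks 50% less growth. Definition used: TGI = concentration required for complete inhibition of growth.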

`CC(C)c1ccc2c(c1)CCC1C2CCCC1(C)NCc1ccccc1` (centres undefined): the GI50 (usually the concentration giving 50% growth inhibition) in assay [1] was 1.97 µM; in assay [2], 0.78 µM; in assay [3], 5.5 µM; in assay [4], 8.94 µM; in [5], 3.48 µM; in [6], 10 µM. The GI50 was 6.06 µM in assay [7], 2.79 µM in assay [8], 2.52 µM in [9] and 12.8 µM in assay [10]. In addition, the total growth inhibition concentration (TGI) (commonly the concentration giving total growth inhibition) in [1] stood at 3.71 µM; in [2], 2.7 µM; in assay [3], 18.5 µM; in assay [4], 21.4 µM; in [5] it was 13.6 µM; in [6], 22.7 µM. Also, the total growth inhibition concentration (TGI) stood at 19.3 µM in assay [7], 9.64 µM in [8], 6.13 µM in [9] and 26.4 µM in [10].
On to `C=C(C)c1nc(Oc2ccccc2)nc(Oc2ccccc2)n1`, for which the TGI in assay [1] is 11.3 µM; in assay [2], 12.9 µM; in assay [3], 14.5 µM; in assay [4] it was 25 µM; in assay [5], 30.2 µM; in [6] it was 23 µM. Besides, the total growth inhibition concentration (TGI) in [7] is 27.8 µM; in [8], 22.3 µM; in [9], 23 µM; in assay [10], 18.5 µM.
Consider `CCCCCCCCCCCCOC1C(C(COC2OC(C(O)CO)C3OC(C)(C)OC23)OC(=O)Nc2ccccc2)OC2OC(C)(C)OC21` (centres undefined), for which the GI50 is 5.12 µM in [1]; 2.11 µM in assay [2]; 9.14 µM in [3]; 9.7 µM in assay [4]; 4.84 µM in assay [5]; 4.82 µM in assay [6]. Further, the GI50 is 3.57 µM in assay [7], 7.72 µM in assay [8], 9.94 µM in assay [9] and 7.35 µM in assay [10]. Also, the concentration for total growth inhibition (TGI) in assay [1] was 17 µM; in assay [2], 4.68 µM; in [3] it was 22.3 µM; in [4], 22.2 µM; in assay [5], 16.3 µM; in [6], 16.3 µM. In addition, the TGI in assay [7] came to 13.1 µM; in [8] it was 21.6 µM; in [9], 25.2 µM; in assay [10], 20.3 µM.
Turning to `O=C(O)CSc1cc(NS(=O)(=O)c2ccc(Br)cc2)c2ccccc2c1O`, the GI50 in assay [1] is 15.1 µM; in assay [2], 18.1 µM; in assay [3] it was 17.8 µM; in assay [4], 17.9 µM; in assay [5] it was 21.6 µM; in [6], 12.8 µM. In addition, the GI50 in [7] was 5.78 µM; in assay [8], 1.88 µM; in [9], 4.95 µM; in assay [10] it was 17.1 µM. Also, the TGI in assay [1] turned out to be 29.5 µM; in assay [2] it was 78.1 µM; in assay [3], 32.8 µM; in assay [4], 31.9 µM; in assay [5] it was 47.1 µM; in [6], 26.6 µM. The TGI in [7] was 43.8 µM; in [8], 3.41 µM; in [9], 12.1 µM; in assay [10] it was 34.2 µM.
For the compound `O=C1NC(=O)C2C3C=CC(C12)C1C2C(=O)NC(=O)C2C31` (centres undefined), the GI50 in assay [1] was > 973 µM; in assay [2], 657 µM; in assay [3] it was 316 µM; in assay [4], > 644 µM; in [5], > 1000 µM; in assay [6], 766 µM. Further, the GI50 in assay [7] is 525 µM; in assay [8] it was > 250 µM; in assay [9], > 1000 µM; in [10] it was 327 µM. Besides, the concentration for total growth inhibition (TGI) was 250 µM and > 1000 µM in assay [1]; 194 µM and > 1000 µM in [2]; 199 µM and > 1000 µM in assay [3]; > 1000 µM in assay [5]; > 1000 µM in assay [6]; 250 µM and > 1000 µM in assay [7]. For the same compound, the total growth inhibition concentration (TGI) is > 1000 µM in assay [8]; 250 µM and > 1000 µM in [9]; 238 µM and > 904 µM in assay [10].
For `COc1cc2c(cc1OCCN1CCN(CCN3C(=O)c4cccc5cccc(c45)C3=O)CC1)N=C[C@@H]1CCCN1C2=O`, the GI50 is 14.5 µM in assay [1]; 22.6 µM in [2]; 20.8 µM in [3]; 19.7 µM in [4]; 19 µM in assay [5]; 17.2 µM in assay [6]. Moreover, the GI50 in [7] is 18.1 µM; in assay [8], 23.4 µM; in assay [9] it was 21.1 µM; in [10], 29.9 µM. Also, the concentration for total growth inhibition (TGI) was 28.7 µM in assay [1]; 43.9 µM in [2]; 45.6 µM in assay [3]; 34.9 µM in assay [4]; 35 µM in assay [5]; 31.5 µM in assay [6]. The TGI in [7] was found to be 32 µM; in [8], 48.7 µM; in [9] it was 48.3 µM; in assay [10] it was 53.7 µM.
